According to patent US6737418B2, “Aryl substituted pyrazoles, imidazoles, oxazoles, thiazoles and pyrroles, and the use thereof” (Euro-Celtique S.A., priority 1999, dated 2004):
pKi: −log10 of the molar value. Structures can show the parent of a compound that is named as a salt.

System: not given
Assay: not given
Conditions: not given

Structure (SMILES) | melting point [°C]
NC(=O)n1ccc(-c2ccc(Oc3ccc(C(F)(F)F)cc3)cc2)n1 [3-[4-(4-Trifluoromethylphenoxy)phenyl]-1H-pyrazole-1-carboxamide] | 131 to 132
NC(=O)n1ccc(-c2ccc(Oc3ccc(Cl)cc3F)cc2)n1 [3-[4-(4-Chloro-2-fluorophenoxy)phenyl]-1H-pyrazole-1-carhoxamide] | 150 to 151
Cl.FC(F)(F)c1ccc(Oc2ccc(-c3c[nH]cn3)cc2)cc1 [4-(4-(4-Trifluoromethylphenoxy)phenyl]-1H-imidazole, hydrochloride salt] | 230 to 232
CSc1cc(-c2ccc(Oc3ccccc3)cc2)nn1C(N)=O [5-Methylthio-3-(4-phenoxyphenyl)-1H-pyrazole-1-carboxamide] | 142 to 144
O=C(Cn1nccc1-c1ccc(Oc2ccc(F)cc2)cc1)N1CCOCC1 [1-Morpholin-4-yl-2-{5-[4-(4-fluorophenoxy)phenyl]-pyrazol-1-yl}-ethanone] | 122 to 124

Further lines, results first:

melting point [°C] | Structure (SMILES)
144 to 148 | Fc1ccc(Oc2ccc(-c3c[nH]cn3)cc2)c(F)c1 [4-[4-(2,4-Difluorophenoxy)phenyl]-1H-imidazole]
192 to 195 | Fc1ccc(Oc2ccc(-c3c[nH]cn3)cc2)c(F)c1 (as salt: hydrochloride) [4-[4-(2,4-Difluorophenoxy)phenyl]-1H-imidazole]
216 to 220 | Cl.Fc1cc(Cl)ccc1Oc1ccc(-c2c[nH]cn2)cc1 [4-[4-(4-Chloro-2-fluorophenoxy)phenyl]-1H-imidazole, hydrochloride salt]

Target: T1, hSkM1 isoform of Na+ channels (Homo sapiens, UniProt P35499)
T1 construct: expressed in transfected cells
T1 sequence (P35499 whole entry, canonical isoform): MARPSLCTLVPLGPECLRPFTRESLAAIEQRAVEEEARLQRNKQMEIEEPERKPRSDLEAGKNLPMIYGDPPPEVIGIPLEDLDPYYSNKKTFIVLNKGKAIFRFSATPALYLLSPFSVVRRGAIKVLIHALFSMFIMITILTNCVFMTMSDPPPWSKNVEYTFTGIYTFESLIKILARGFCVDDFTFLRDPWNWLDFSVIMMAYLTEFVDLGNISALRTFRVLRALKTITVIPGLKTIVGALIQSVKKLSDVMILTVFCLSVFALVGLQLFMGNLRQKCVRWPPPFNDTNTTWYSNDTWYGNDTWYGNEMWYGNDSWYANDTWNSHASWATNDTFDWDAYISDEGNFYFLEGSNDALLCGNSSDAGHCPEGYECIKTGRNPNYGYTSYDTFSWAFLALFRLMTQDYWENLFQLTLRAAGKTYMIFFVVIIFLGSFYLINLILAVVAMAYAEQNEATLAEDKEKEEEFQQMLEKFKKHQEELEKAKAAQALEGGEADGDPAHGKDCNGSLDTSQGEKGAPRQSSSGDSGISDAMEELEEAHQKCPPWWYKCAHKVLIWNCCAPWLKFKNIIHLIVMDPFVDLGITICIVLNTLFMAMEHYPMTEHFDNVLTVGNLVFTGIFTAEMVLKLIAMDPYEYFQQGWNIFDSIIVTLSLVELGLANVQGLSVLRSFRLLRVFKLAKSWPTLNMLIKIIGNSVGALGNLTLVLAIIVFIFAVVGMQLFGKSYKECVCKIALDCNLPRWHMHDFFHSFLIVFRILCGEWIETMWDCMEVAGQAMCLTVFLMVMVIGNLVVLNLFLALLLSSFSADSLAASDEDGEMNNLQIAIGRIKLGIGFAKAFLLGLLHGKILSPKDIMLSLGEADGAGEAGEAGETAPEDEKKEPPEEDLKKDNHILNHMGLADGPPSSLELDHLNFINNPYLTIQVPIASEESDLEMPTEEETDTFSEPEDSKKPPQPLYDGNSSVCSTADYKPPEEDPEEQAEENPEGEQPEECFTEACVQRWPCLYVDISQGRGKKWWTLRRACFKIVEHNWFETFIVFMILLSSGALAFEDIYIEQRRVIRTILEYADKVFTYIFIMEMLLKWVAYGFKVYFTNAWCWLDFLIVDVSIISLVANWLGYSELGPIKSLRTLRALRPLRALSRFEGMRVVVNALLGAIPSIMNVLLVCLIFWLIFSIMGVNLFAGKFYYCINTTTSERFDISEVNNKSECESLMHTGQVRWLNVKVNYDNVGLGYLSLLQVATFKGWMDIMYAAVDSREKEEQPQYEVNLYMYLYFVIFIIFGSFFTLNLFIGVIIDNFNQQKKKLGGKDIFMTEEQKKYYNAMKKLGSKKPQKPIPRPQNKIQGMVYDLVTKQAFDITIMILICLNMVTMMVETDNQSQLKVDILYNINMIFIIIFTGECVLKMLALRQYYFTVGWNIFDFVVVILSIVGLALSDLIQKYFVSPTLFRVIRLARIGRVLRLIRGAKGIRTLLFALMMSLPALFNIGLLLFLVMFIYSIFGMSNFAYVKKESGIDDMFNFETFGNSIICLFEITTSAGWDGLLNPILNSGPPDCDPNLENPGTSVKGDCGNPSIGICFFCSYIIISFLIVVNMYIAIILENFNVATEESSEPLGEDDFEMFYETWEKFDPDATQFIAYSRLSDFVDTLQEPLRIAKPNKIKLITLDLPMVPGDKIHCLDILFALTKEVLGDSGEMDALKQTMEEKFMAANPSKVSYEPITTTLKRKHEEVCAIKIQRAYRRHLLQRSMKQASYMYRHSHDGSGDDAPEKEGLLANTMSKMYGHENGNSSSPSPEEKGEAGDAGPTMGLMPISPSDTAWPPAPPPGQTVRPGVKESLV
Assay: Electrophysiological Assay 1: whole-cell patch-clamp of Na+ currents in HEK-293 cells expressing hSkM1
Type: cell-based
Conditions: HEK-293 cells stably expressing hSkM1; concentration that produces half maximal inhibition
Method: Cell preparation: HEK-293 cells stably expressing the hSkM1 isoform of Na^+ channels (generous gift from Dr. A. L. George, Vanderbilt University Medical School) were cultured using standard techniques, as described previously (Verdoorn, T. A, et al., Neuron 4:919-928 (1990)). For electrophysiology, cells were plated onto 35 mm Petri dishes (pre-coated with poly-D-lysine) at a density of 1:40 on the day of re-seeding from confluent cultures. Our experience has been that cells are suitable for recordings for 2-3 days after plating.
Patch-clamp recordings of voltage-sensitive Na^+ currents: Whole-cell voltage-clamp recordings were made using conventional patch-clamp techniques (Hamill et al., Pfluegers Arch. 391:85-100 (1981)) with an Axopatch 200A amplifier (Axon Instruments, Foster City, Calif.). […] The recording chamber was continuously superfused with the external solution (150 mM NaCl, 5.4 mM KCl, 1.8 mM CaCl2, 1 mM MgCl2, 10 mM HEPES, 10 mM glucose, pH 7.4 (NaOH)) at a speed of about 1 mL/min. Recording pipettes were pulled from thick-walled capillaries (WPI, Sarasota, Fla.) and fire-polished. The pipette resistances ranged from 1 to 3 MΩ when the pipettes were filled with internal solution containing (in mM): 110 CsF, 10 NaCl, 5 MgCl2, 11 EGTA, 10 HEPES, pH adjusted to 7.4 with CsOH. Osmolality was set with a difference of 15-20 mmol/kg between external and internal solutions (lower inside the cell). Drugs and intervening wash-outs were applied through a linear array of flow pipes (Drummond Microcaps, 2 μL, 64-mm length). Compounds are dissolved in dimethylsulfoxide (DMSO) to make a 30 mM stock solution, which was subsequently diluted into the external solution to give final concentrations of 0.1-100 μM. At the highest (1%) concentration, DMSO inhibited the size of Na^+ current only slightly. Currents were recorded at room temperature (22-25° C.), filtered at 5 kHz with an active 8-pole Bessel filter (Frequency Devices, Haverhill, Mass.), digitized at 10-50 μs intervals, and stored using Digidata 1200 analog/digital interface with Pclamp6/Clampex software (Axon Instruments). Series resistance was cancelled typically by ˜75% when necessary. The inhibitory potency of drugs was assessed by measuring reductions in the peak amplitude of Na^+ currents induced by increasing concentrations of compounds tested. Na^+ currents were elicited by stepping membrane voltage from holding potentials over the range −100 mV to −50 mV, to a pulse potential of −10 mV. The test pulse duration was 5-10 msec, repeated at a frequency≦1 Hz. Concentration-inhibition curves were fitted with equation 1:
I/Icontrol=1/(1+([compound]/IC50)) Eq. 1
where Icontrol is the maximal Na^+ current in the absence of antagonist, [compound] is the drug concentration, and IC50 is the concentration of compound that produces half maximal inhibition.
The apparent antagonist dissociation constant (Kd) of this compound for inactivated sodium channels is ˜8 nM.
The Ki (the concentration of a compound that produces half maximal inhibition) value for 3-[4-(4-fluorophenoxy)phenyl]-1H-pyrazole-1-carboxamide and other tested compounds are presented in Table 2.

pKi | Structure (SMILES)
8.52 | NC(=O)n1ccc(-c2ccc(Oc3ccc(Cl)cc3F)cc2)n1 [3-[4-(4-Chloro-2-fluorophenoxy)phenyl]-1H-pyrazole-1-carhoxamide]
7.10 | CSc1cc(-c2ccc(Oc3ccccc3)cc2)nn1C(N)=O [5-Methylthio-3-(4-phenoxyphenyl)-1H-pyrazole-1-carboxamide]

Target: rBIIA isoform of Na+ channels (Rattus norvegicus, UniProt P04775)
Assay: Electrophysiological Assay 2: whole-cell patch-clamp of Na+ currents in HEK-293 cells expressing rBIIA
Type: cell-based
Conditions: HEK-293 cells stably expressing rBIIA; concentration that produces half maximal inhibition
Method: Cell preparation: HEK-293 (NaIIA-B2) cell line stably expressing the rBIIA isoform of Na^+ channels was established in-house. The cells were cultured using standard techniques, as described previously (Verdoorn, T. A, et al., Neuron 4:919-928 (1990)). For electrophysiology, cells were plated onto poly-D-lysine pre-coated Cellware 35 mm Petri dishes (BIOCOAT, Becton Dickinson) at a density of ˜10^4 cells/dish on the day of re-seeding from confluent cultures. Our experience has been that cells are suitable for recordings for 2-3 days after plating.
Patch-clamp recordings of voltage-sensitive Na^+ currents. Whole-cell voltage-clamp recordings were made using conventional patch-clamp techniques (Hamill et al., Pfluegers Arch. 391:85-100 (1981)) with an Axopatch 200A amplifier (Axon Instruments, Foster City, Calif.). The recording chamber was continuously superfused with the external solution (150 mM NaCl, 5.4 mM KCl, 1.8 mM CaCl2, 1 mM MgCl2, 10 mM HEPES, 10 mM glucose, pH7.4 adjusted with NaOH, osmolality ˜320 mmol/kg) at a speed of about 1 mL/min. Recording pipettes were pulled from the thick-walled capillaries (WPI, Sarasota, Fla.) and fire-polished. The pipette resistances ranged from 1 to 3 MΩ when the pipettes were filled with internal solution containing (in mM): 130 CsF, 20 NaCl, 2 MgCl2, 10 EGTA, 10 HEPES, pH adjusted to 7.4 with CsOH, osmolality ˜310 mmol/kg. Drugs and intervening wash-outs were applied through a linear array of flow pipes (Drummond Microcaps, 2 μL, 64-mm length). Compounds are dissolved in dimethylsulfoxide (DMSO) to make a 30 mM stock solution, which was subsequently diluted into the external solution to give final concentrations of 0.1-100 μM. At the highest (1%) concentration, DMSO inhibited the size of Na^+ current only slightly. Currents were recorded at room temperature (22-25° C.), filtered at 3 kHz with an active 8-pole Bessel filter (Frequency Devices, Haverhill, Mass.), digitized at 10-50 μs intervals, and stored using Digidata 1200 analog/digital interface with Pclamp6/Clampex software (Axon Instruments). Series resistance was cancelled typically by ˜75% when necessary.
The following voltage pulse protocols were used to assess the potency and kinetics of inhibition of the Na^+ channels by the compounds (FIG. 1). [drawing 33]
FIG. 1. Voltage pulse protocols. A. IV-curves. C. Steady-state inactivation. B. Repriming kinetics. D. Time course of binding.
Current-voltage relationship (IV-curve), protocol A, was used to report the voltage at which the maximal inward Na^+ current is achieved. This voltage was used throughout the experiment as testing voltage, Vt. The steady-state inactivation (or, availability) curve, protocol C, was used to get the voltage at which almost complete (≧95%) inactivation of Na^+ channels occurs; it served as voltage for conditioning prepulse, Vc, throughout the experiment. Protocol B reports how fast the channels recover from inactivation at hyperpolarized voltages. This permitted us to set up the duration of the hyperpolarization gap which is used in measurement of the kinetics of binding of compounds to inactivated Na^+ channels (protocol D). Channel repriming under control conditions was fast (≧90% recovery during first 5-10 ms). If a drug substantially retards the repriming process then it becomes possible (protocol D) to accurately measure the kinetics of binding of the inhibitor to inactivated channels as well as the steady-state affinity (k+ and Ki). To estimate k+ values the reduction in peak currents in successive trials with varying pre-pulse duration was plotted as a function of pre-pulse duration and the time constant (τ) measured by mono-exponential fit. A plot of 1/τ as a function of antagonist concentration then allowed calculating of the macroscopic binding rates of the antagonists. To determine Ki values the partial inhibition curves measured by fractional responses in steady-state were fitted with the logistic equation: […]

Structure (SMILES) | pKi
NC(=O)Cn1nccc1-c1ccc(Oc2ccc(F)cc2)cc1 [2-{5-[4-(4-Fluorophenoxy)phenyl]-pyrazol-1-yl}-acetamide] | 5.81
Fc1ccc(Oc2ccc(-c3ccn(-c4ncccn4)n3)cc2)cc1 [2-{3-[4-(4-Fluorophenoxy)phenyl]-pyrazol-1-yl}-pyrimidine] | 6.38

Results, then the molecule that gave them:

pKi | Structure (SMILES)
5.99 | Fc1ccc(Oc2ccc(-c3c[nH]cn3)cc2)c(F)c1 [4-[4-(2,4-Difluorophenoxy)phenyl]-1H-imidazole]
6.92 | Cl.Fc1cc(Cl)ccc1Oc1ccc(-c2c[nH]cn2)cc1 [4-[4-(4-Chloro-2-fluorophenoxy)phenyl]-1H-imidazole, hydrochloride salt]

System: maximal electroshock-induced seizures (MES)
Assay: Maximum electroshock seizure test (MES), oral administration to mice
Type: in vivo
Conditions: Mus musculus, po, 30 minutes before the test, dose protecting 50% of animals
From the text: The compounds of the present invention may be tested for in vivo anticonvulsant activity after i.v., p.o. or i.p. injection using a number of anticonvulsant tests in mice, including the maximum electroshock seizure test (MES). Maximum electroshock seizures were induced in male NSA mice weighing between 15-20 g and male Sprague-Dawley rats weighing between 200-225 g by application of current (50 mA, 60 pulses/sec, 0.8 msec pulse width, 1 sec duration, D.C., mice; 99 mA, 125 pulses/sec, 0.8 msec pulse width, 2 sec duration, D.C., rats) using a Ugo Basile ECT device (Model 7801). Mice were restrained by gripping the loose skin on their dorsal surface and saline-coated corneal electrodes were held lightly against the two corneae. Rats were allowed free movement on the bench top and ear-clip electrodes were used. […] A tonic seizure was defined as a hindlimb extension in excess of 90 degrees from the plane of the body. Results were treated in a quantal manner.
The ability of 3-[4-(2,4-difluorophenoxy)phenyl]-1H-pyrazole-1-carboxamide to block maximal electroshock-induced seizures (MES) was determined as described earlier.
3-[4-(2,4-Difluorophenoxy)phenyl]-1H-pyrazole-1-carboxamide was administered p.o. to mice 30 minutes before the test procedure.
The following compounds in Table 1 were tested in MES as described for 3-[4-(2,4-difluorophenoxy)phenyl]-1H-pyrazole-1-carboxamide: […]

Structure (SMILES) | ED50 [mg/kg]
NC(=O)Cn1nccc1-c1ccc(Oc2ccc(F)cc2)cc1 [2-{5-[4-(4-Fluorophenoxy)phenyl]-pyrazol-1-yl}-acetamide] | 2.6
Fc1ccc(Oc2ccc(-c3ccn(-c4ncccn4)n3)cc2)cc1 [2-{3-[4-(4-Fluorophenoxy)phenyl]-pyrazol-1-yl}-pyrimidine] | 4.7
NC(=O)n1ccc(-c2ccc(Oc3ccc(C(F)(F)F)cc3)cc2)n1 [3-[4-(4-Trifluoromethylphenoxy)phenyl]-1H-pyrazole-1-carboxamide] | 3.9
NC(=O)n1ccc(-c2ccc(Oc3ccc(Cl)cc3F)cc2)n1 [3-[4-(4-Chloro-2-fluorophenoxy)phenyl]-1H-pyrazole-1-carhoxamide] | 3.1
Cl.FC(F)(F)c1ccc(Oc2ccc(-c3c[nH]cn3)cc2)cc1 [4-(4-(4-Trifluoromethylphenoxy)phenyl]-1H-imidazole, hydrochloride salt] | 7.7
O=C(Cn1nccc1-c1ccc(Oc2ccc(F)cc2)cc1)N1CCOCC1 [1-Morpholin-4-yl-2-{5-[4-(4-fluorophenoxy)phenyl]-pyrazol-1-yl}-ethanone] | 4.4
Cl.Fc1cc(Cl)ccc1Oc1ccc(-c2c[nH]cn2)cc1 [4-[4-(4-Chloro-2-fluorophenoxy)phenyl]-1H-imidazole, hydrochloride salt] | 10
